Source: ChEMBL document CHEMBL3272324, “Studies on antitumor agents, 2. Syntheses and antitumor activities of 1-(tetrahydro-2-furanyl)-5-fluorouracil and 1,3-bis(tetrahydro-2-furanyl)-5-fluorouracil” (J Med Chem, 1978)

How the values were obtained:
Rattus norvegicus [1] = experiment: Toxicity in Donryu rat allografted with rat AH-130 cells assessed as body weight change at 0.15 mmol/kg, po administered for 7 days measured on day 10 relative to control; type: organism-based; settings: in vivo, 168 h
Rattus norvegicus [2] = experiment: Toxicity in Donryu rat allografted with rat AH-130 cells assessed as body weight change at 0.45 mmol/kg, po administered for 7 days measured on day 10 relative to control; type: organism-based; settings: in vivo, 168 h
[3] = Antitumor activity against rat AH-130 cells allografted in Donryu rat assessed as tumor inhibition at 0.45 mmol/kg, po qd for 7 days measured on day 10 relative to control; type: functional; settings: read-out: TGI
[4] = Antitumor activity against rat AH-130 cells allografted in Donryu rat assessed as tumor inhibition at 0.15 mmol/kg, po qd for 7 days measured on day 10 relative to control; type: functional; settings: read-out: TGI
[5] = Antitumor activity against rat AH-130 cells allografted in Donryu rat assessed as tumor inhibition at 0.08 mmol/kg, po qd for 7 days measured on day 10 relative to control; type: functional; settings: read-out: TGI
[6] = Antitumor activity against mouse Ehrlich carcinoma cells allografted in ddY mouse assessed as tumor inhibition at 0.08 mmol/kg, po qd for 7 days measured on day 10 relative to control; type: functional; settings: read-out: TGI
YOSHIDA [7] = experiment: Antitumor activity against rat Yoshida cells allografted in Donryu rat assessed as tumor inhibition at 0.08 mmol/kg, po qd for 7 days measured on day 10 relative to control; type: functional; settings: read-out: TGI
Rattus norvegicus [8] = experiment: Toxicity in Donryu rat allografted with rat AH-130 cells assessed as body weight change at 0.08 mmol/kg, po administered for 7 days measured on day 10 relative to control; type: organism-based; settings: in vivo, 168 h
W256 [9] = experiment: Antitumor activity against rat Walker 256 cells allografted in Wistar rat assessed as tumor inhibition at 0.08 mmol/kg, po qd for 7 days measured on day 10 relative to control; type: functional; settings: read-out: TGI
Sarcoma-180 [10] = experiment: Antitumor activity against mouse Sarcoma 180 cells allografted in ICR mouse assessed as tumor inhibition at 0.08 mmol/kg, po qd for 7 days measured on day 10 relative to control; type: functional; settings: Sarcoma-180, po, read-out: TGI
Sarcoma-180 [11] = experiment: Antitumor activity against mouse Sarcoma 180 cells allografted in ICR mouse assessed as tumor inhibition at 0.15 mmol/kg, po qd for 7 days measured on day 10 relative to control; type: functional; settings: Sarcoma-180, po, read-out: TGI
YOSHIDA [12] = experiment: Antitumor activity against rat Yoshida cells allografted in Donryu rat assessed as tumor inhibition at 0.45 mmol/kg, po qd for 7 days measured on day 10 relative to control; type: functional; settings: read-out: TGI
YOSHIDA [13] = experiment: Antitumor activity against rat Yoshida cells allografted in Donryu rat assessed as tumor inhibition at 0.15 mmol/kg, po qd for 7 days measured on day 10 relative to control; type: functional; settings: read-out: TGI
Sarcoma-180 [14] = experiment: Antitumor activity against mouse Sarcoma 180 cells allografted in ICR mouse assessed as tumor inhibition at 0.45 mmol/kg, po qd for 7 days measured on day 10 relative to control; type: functional; settings: Sarcoma-180, po, read-out: TGI
[15] = Toxicity in po dosed ddY mouse after 3 days by up and down method; type: organism-based; settings: in vivo
[16] = Toxicity in po dosed ddY mouse after 3 weeks by up and down method; type: organism-based; settings: in vivo
[17] = Antitumor activity against mouse Ehrlich carcinoma cells allografted in ddY mouse assessed as tumor inhibition at 0.15 mmol/kg, po qd for 7 days measured on day 10 relative to control; type: functional; settings: read-out: TGI
W256 [18] = experiment: Antitumor activity against rat Walker 256 cells allografted in Wistar rat assessed as tumor inhibition at 0.15 mmol/kg, po qd for 7 days measured on day 10 relative to control; type: functional; settings: read-out: TGI
W256 [19] = experiment: Antitumor activity against rat Walker 256 cells allografted in Wistar rat assessed as tumor inhibition at 0.45 mmol/kg, po qd for 7 days measured on day 10 relative to control; type: functional; settings: read-out: TGI
[20] = Antitumor activity against mouse Ehrlich carcinoma cells allografted in ddY mouse assessed as tumor inhibition at 0.45 mmol/kg, po qd for 7 days measured on day 10 relative to control; type: functional; settings: read-out: TGI

| Structure (SMILES) | Activity (Rattus norvegicus [1]) | Activity (Rattus norvegicus [2]) | inhibition in vivo at 450 µmol/kg [3] | inhibition in vivo at 150 µmol/kg [4] | inhibition in vivo at 80 µmol/kg [5] | inhibition in vivo at 80 µmol/kg [6] | inhibition in vivo at 80 µmol/kg (YOSHIDA [7]) | Activity (Rattus norvegicus [8]) | inhibition in vivo at 80 µmol/kg (W256 [9]) | inhibition in vivo at 80 µmol/kg (Sarcoma-180 [10]) | inhibition in vivo at 150 µmol/kg (Sarcoma-180 [11]) | inhibition in vivo at 450 µmol/kg (YOSHIDA [12]) | inhibition in vivo at 150 µmol/kg (YOSHIDA [13]) | inhibition in vivo at 450 µmol/kg (Sarcoma-180 [14]) | LD50 at 72 h [15] | LD50 at 504 h [16] | inhibition in vivo at 150 µmol/kg [17] | inhibition in vivo at 150 µmol/kg (W256 [18]) | inhibition in vivo at 450 µmol/kg (W256 [19]) | inhibition in vivo at 450 µmol/kg [20] |
| --- | --- | --- | --- | --- | --- | --- | --- | --- | --- | --- | --- | --- | --- | --- | --- | --- | --- | --- | --- | --- |
| O=c1[nH]cc(F)c(=O)n1C1CCCO1 (stereo not drawn) | 47.3 g | 21.7 g | 80% | 45% |  |  |  |  |  |  |  |  |  |  |  |  |  |  |  |  |
| O=c1[nH]cc(F)c(=O)[nH]1 [FLUOROURACIL] |  |  |  |  | 33% | 42% | 41% | 42.1 g | 24% | 48% |  |  |  |  |  |  |  |  |  |  |
| O=c1c(F)cn(C2CCCO2)c(=O)n1C1CCCO1 (stereo not drawn) |  |  | 44% | 32% |  |  |  |  |  |  | 45% | 58% | 43% | 56% | 2900 mg/kg | 2660 mg/kg | 50% | 27% | 37% | 61% |
| O=c1[nH]c(=O)n(C2CCCO2)cc1F (stereo not drawn) [TEGAFUR] |  | 40.9 g | 35% | 22% |  |  |  |  |  |  | 38% | 52% | 32% | 37% |  |  | 38% | 27% | 31% | 54% |
